Reference: PMC3700073, “Synthesis and Biological Activity of New Thiopyrano[2,3-d]thiazoles Containing a Naphthoquinone Moiety” (Scientia Pharmaceutica, 2013)
Where two headings read alike, the source gives them in different places.

How the values were obtained:
PC-3 (prostate cancer) = experiment: NCI five-dose assay; type: cell-based; settings: Homo sapiens
OVCAR-4 (ovarian cancer) = experiment: NCI five-dose assay; type: cell-based; settings: Homo sapiens, OVCAR-4, OVCAR-4, ovarian cancer
NCI-H322M (NSCL cancer) = experiment: NCI five-dose assay; type: cell-based; settings: Homo sapiens
SK-MEL-28 (melanoma) = experiment: NCI five-dose assay; type: cell-based; settings: Homo sapiens, SK-MEL-28, SK-MEL-28, melanoma
[1] = test system: NCI/ADR-RES (breast cancer); experiment: NCI five-dose assay; type: cell-based; settings: Homo sapiens
CAKI-1 (renal cancer) = experiment: NCI five-dose assay; type: cell-based; settings: Homo sapiens, CAKI-1, CAKI-1, renal cancer
NCI-H226 (NSCL cancer) = experiment: NCI five-dose assay; type: cell-based; settings: Homo sapiens
RPMI-8226 (leukemia) = experiment: NCI five-dose assay; type: cell-based; settings: Homo sapiens, RPMI-8226, RPMI-8226, leukemia
SW-620 (colon cancer) = experiment: NCI five-dose assay; type: cell-based; settings: Homo sapiens, SW-620, SW-620, colon cancer
UO-31 (renal cancer) = experiment: NCI five-dose assay; type: cell-based; settings: Homo sapiens, UO-31, UO-31, renal cancer
T-47D (breast cancer) = experiment: NCI five-dose assay; type: cell-based; settings: Homo sapiens, T47D
HL-60(TB) (leukemia) = experiment: NCI five-dose assay; type: cell-based; settings: Homo sapiens, HL-60, HL-60(TB)
A498 (renal cancer) = experiment: NCI five-dose assay; type: cell-based; settings: Homo sapiens
OVCAR-5 (ovarian cancer) = experiment: NCI five-dose assay; type: cell-based; settings: Homo sapiens, OVCAR-5, OVCAR-5, ovarian cancer
60 cancer cell lines = settings: over the cell line panel
MCF-7 (breast cancer) = experiment: NCI five-dose assay; type: cell-based; settings: Homo sapiens, MCF7, MCF-7, breast cancer
CCRF-CEM (leukemia) = experiment: NCI five-dose assay; type: cell-based; settings: Homo sapiens
HT29 (colon cancer) = experiment: NCI five-dose assay; type: cell-based; settings: Homo sapiens, HT-29, HT29, colon cancer
HCT-116 (colon cancer) = experiment: NCI five-dose assay; type: cell-based; settings: Homo sapiens, HCT-116, HCT-116, colon cancer
SNB-19 (CNS cancer) = experiment: NCI five-dose assay; type: cell-based; settings: Homo sapiens, SNB-19, SNB-19, CNS cancer
[2] = test system: MDA-MB-231/ATCC (breast cancer); experiment: NCI five-dose assay; type: cell-based; settings: Homo sapiens, MDA-MB-231, MDA-MB-231/ATCC
MALME-3M (melanoma) = experiment: NCI five-dose assay; type: cell-based; settings: Homo sapiens
NCI-H522 (NSCL cancer) = experiment: NCI five-dose assay; type: cell-based; settings: Homo sapiens
UACC-62 (melanoma) = experiment: NCI five-dose assay; type: cell-based; settings: Homo sapiens, UACC-62, UACC-62, melanoma
COLO 205 (colon cancer) = experiment: NCI five-dose assay; type: cell-based; settings: Homo sapiens, COLO 205, COLO 205, colon cancer
NCI-H460 (NSCL cancer) = experiment: NCI five-dose assay; type: cell-based; settings: Homo sapiens
OVCAR-8 (ovarian cancer) = experiment: NCI five-dose assay; type: cell-based; settings: Homo sapiens, OVCAR-8, OVCAR-8, ovarian cancer
SF-295 (CNS cancer) = experiment: NCI five-dose assay; type: cell-based; settings: Homo sapiens, SF-295, SF-295, CNS cancer
HCT-15 (colon cancer) = experiment: NCI five-dose assay; type: cell-based; settings: Homo sapiens, HCT-15, HCT-15, colon cancer
786-0 (renal cancer) = experiment: NCI five-dose assay; type: cell-based; settings: Homo sapiens, 786-0, 786-0, renal cancer
U251 (CNS cancer) = experiment: NCI five-dose assay; type: cell-based; settings: Homo sapiens, U-251, U251, CNS cancer
SNB-75 (CNS cancer) = experiment: NCI five-dose assay; type: cell-based; settings: Homo sapiens, SNB-75, SNB-75, CNS cancer
A549/ATCC (NSCL cancer) = experiment: NCI five-dose assay; type: cell-based; settings: Homo sapiens
male mice = experiment: Acute toxicity in vivo, median lethal dose; settings: intraperitoneal, approximate LD50 (Litchfield and Wilcoxon)
Experimental: The synthesized compounds were evaluated for their approximate LD50 in male mice. The mice were kept under a constant temperature and humidity in sterile cages with water and food. The stock solutions of the compounds used in this study were prepared immediately before usage and injected intraperitoneally (ip). The LD50 values (Tab. 3) were calculated using the method described by Litchfield and Wilcoxon.
The median lethal dose (LD50), the dose of the selected compounds that causes 50% mortality in mice, was determined from dose–response curves with at least four doses by the method of Litchfield and Wilcoxon.

[3] = test system: MDA-MB-435 (breast cancer); experiment: NCI five-dose assay; type: cell-based; settings: Homo sapiens, MDA-MB-435, MDA-MB-435, breast cancer
RXF-393 (renal cancer) = experiment: NCI five-dose assay; type: cell-based; settings: Homo sapiens
M14 (melanoma) = experiment: NCI five-dose assay; type: cell-based; settings: Homo sapiens

COc1ccc(C2C3=C(Sc4[nH]c(=O)sc42)C(=O)c2ccccc2C3=O)cc1OC (stereo not drawn) [Compound 4f, 11-(3,4-Dimethoxyphenyl)-3,11-dihydro-2H-benzo[6,7]thiochromeno[2,3-d][1,3]thiazole-2,5,10-trione]
GI50 (PC-3 (prostate cancer)): 5410 nM
GI50 (OVCAR-4 (ovarian cancer)): 2480 nM
GI50 (NCI-H322M (NSCL cancer)): 3780 nM
GI50 (SK-MEL-28 (melanoma)): 6220 nM
GI50 [1]: 7070 nM
GI50 (CAKI-1 (renal cancer)): 11200 nM
GI50 (NCI-H226 (NSCL cancer)): 5430 nM
GI50 (RPMI-8226 (leukemia)): 4640 nM
GI50 (SW-620 (colon cancer)): 3960 nM
GI50 (UO-31 (renal cancer)): 10800 nM
GI50 (T-47D (breast cancer)): 3420 nM
GI50 (HL-60(TB) (leukemia)): 1980 nM
GI50 (A498 (renal cancer)): 4910 nM
GI50 (OVCAR-5 (ovarian cancer)): 17700 nM
TGI MG_MID (60 cancer cell lines): 14790 nM
GI50 (MCF-7 (breast cancer)): 2250 nM
GI50 (CCRF-CEM (leukemia)): 4380 nM
GI50 (HT29 (colon cancer)): 3150 nM
GI50 (HCT-116 (colon cancer)): 3470 nM
GI50 (SNB-19 (CNS cancer)): 4490 nM
GI50 [2]: 3130 nM
GI50 (MALME-3M (melanoma)): 2120 nM
GI50 (NCI-H522 (NSCL cancer)): 7910 nM
GI50 (UACC-62 (melanoma)): 2210 nM
GI50 (COLO 205 (colon cancer)): 3370 nM
GI50 (NCI-H460 (NSCL cancer)): 2180 nM
GI50 (OVCAR-8 (ovarian cancer)): 4020 nM
GI50 (SF-295 (CNS cancer)): 3770 nM
GI50 (HCT-15 (colon cancer)): 3510 nM
GI50 (786-0 (renal cancer)): 15200 nM
GI50 (U251 (CNS cancer)): 4270 nM
GI50 (SNB-75 (CNS cancer)): 6640 nM
GI50 (A549/ATCC (NSCL cancer)): 2350 nM
LD50ip (male mice): 410 mg/kg
GI50 [3]: 2190 nM
GI50 (RXF-393 (renal cancer)): 2270 nM
GI50 (M14 (melanoma)): 2670 nM

COc1cc(C2C3=C(Sc4[nH]c(=O)sc42)C(=O)c2ccccc2C3=O)ccc1O (stereo not drawn) [Compound 4i, 11-(4-Hydroxy-3-methoxyphenyl)-3,11-dihydro-2H-benzo[6,7]thiochromeno[2,3-d]-[1,3]thiazole-2,5,10-trione]
GI50 (PC-3 (prostate cancer)): 1980 nM
GI50 (PC-3 (prostate cancer); repeated testing): 2570 nM
GI50 (OVCAR-4 (ovarian cancer)): 2190 nM
GI50 (OVCAR-4 (ovarian cancer); repeated testing): 1330 nM
GI50 (NCI-H322M (NSCL cancer)): 2050 nM
GI50 (NCI-H322M (NSCL cancer); repeated testing): 1860 nM
GI50 (SK-MEL-28 (melanoma)): 1790 nM
GI50 (SK-MEL-28 (melanoma); repeated testing): 1410 nM
GI50 [1]: 8390 nM
GI50 ([1]; repeated testing): 4500 nM
GI50 (CAKI-1 (renal cancer)): 1500 nM
GI50 (CAKI-1 (renal cancer); repeated testing): 2920 nM
GI50 (NCI-H226 (NSCL cancer)): 1740 nM
GI50 (NCI-H226 (NSCL cancer); repeated testing): 2850 nM
GI50 (RPMI-8226 (leukemia)): 1930 nM
GI50 (RPMI-8226 (leukemia); repeated testing): 1330 nM
GI50 (SW-620 (colon cancer)): 2820 nM
GI50 (SW-620 (colon cancer); repeated testing): 3230 nM
GI50 (UO-31 (renal cancer)): 3330 nM
GI50 (UO-31 (renal cancer); repeated testing): 570 nM
GI50 (T-47D (breast cancer)): 2560 nM
GI50 (HL-60(TB) (leukemia)): 2010 nM
GI50 (HL-60(TB) (leukemia); repeated testing): 1260 nM
GI50 (A498 (renal cancer)): 1950 nM
GI50 (A498 (renal cancer); repeated testing): 2110 nM
GI50 (OVCAR-5 (ovarian cancer)): 10400 nM
GI50 (OVCAR-5 (ovarian cancer); repeated testing): 4490 nM
TGI MG_MID (60 cancer cell lines): 10960 nM
TGI MG_MID (60 cancer cell lines; repeated testing): (8.51) μM
GI50 (MCF-7 (breast cancer)): 1070 nM
GI50 (MCF-7 (breast cancer); repeated testing): 2260 nM
GI50 (CCRF-CEM (leukemia)): 3190 nM
GI50 (CCRF-CEM (leukemia); repeated testing): 1840 nM
GI50 (HT29 (colon cancer)): 2350 nM
GI50 (HT29 (colon cancer); repeated testing): 2020 nM
GI50 (HCT-116 (colon cancer)): 3360 nM
GI50 (HCT-116 (colon cancer); repeated testing): 2460 nM
GI50 (SNB-19 (CNS cancer)): 2410 nM
GI50 (SNB-19 (CNS cancer); repeated testing): 2850 nM
GI50 [2]: 860 nM
GI50 ([2]; repeated testing): 1980 nM
GI50 (MALME-3M (melanoma)): 720 nM
GI50 (MALME-3M (melanoma); repeated testing): 1050 nM
GI50 (NCI-H522 (NSCL cancer)): 1960 nM
GI50 (NCI-H522 (NSCL cancer); repeated testing): 2120 nM
GI50 (UACC-62 (melanoma)): 430 nM
GI50 (UACC-62 (melanoma); repeated testing): 1590 nM
GI50 (COLO 205 (colon cancer)): 2080 nM
GI50 (COLO 205 (colon cancer); repeated testing): 1680 nM
GI50 (NCI-H460 (NSCL cancer)): 1920 nM
GI50 (NCI-H460 (NSCL cancer); repeated testing): 1660 nM
GI50 (OVCAR-8 (ovarian cancer)): 2850 nM
GI50 (OVCAR-8 (ovarian cancer); repeated testing): 2050 nM
GI50 (SF-295 (CNS cancer)): 1710 nM
GI50 (SF-295 (CNS cancer); repeated testing): 1140 nM
GI50 (HCT-15 (colon cancer)): 2070 nM
GI50 (HCT-15 (colon cancer); repeated testing): 1740 nM
GI50 (786-0 (renal cancer)): 2600 nM
GI50 (786-0 (renal cancer); repeated testing): 5200 nM
GI50 (U251 (CNS cancer)): 1630 nM
GI50 (U251 (CNS cancer); repeated testing): 2210 nM
GI50 (SNB-75 (CNS cancer)): 1260 nM
GI50 (SNB-75 (CNS cancer); repeated testing): 670 nM
GI50 (A549/ATCC (NSCL cancer)): 1340 nM
GI50 (A549/ATCC (NSCL cancer); repeated testing): 650 nM
LD50ip (male mice): 280 mg/kg
GI50 [3]: 1380 nM
GI50 ([3]; repeated testing): 1480 nM
GI50 (RXF-393 (renal cancer)): 2520 nM
GI50 (M14 (melanoma)): 1250 nM
GI50 (M14 (melanoma); repeated testing): 1220 nM
